Data published in US20160090556A1, “PRODUCTS COMPRISING MALODOR REDUCTION MATERIALS” (The Procter & Gamble Company, priority 2014, published 2016).
Several values for one entry are separate records, joined by “and”; a condition that tells them apart may be missing. Equal values may be shown once. Read-outs that look alike come from different tables or passages of the source.

Key:
[1] = Fragrance Fidelity Index (FFI) assigned by perfumers/expert graders on fabric swatches; parameters: species or system human; key: FFI grade on reference scale anchored by 0, 1, 2, 3 swatches
Excerpt: (§1) Blocker materials suitable for use in consumer products of the present invention are chosen for their ability to decrease malodor, while not interfering with perception of a fragrance. Material selection is done by assigning two indices to a test sample material from two reference scales in order to rank odor strengths. The two reference scales are the Fragrance Fidelity Index (FFI) scale and the Blocker Index (BI) scale. The FFI ranks the ability of the test sample material to impart a perceivable odor which could cause interference when combined with another fragrance and the BI ranks the ability of the test sample material to reduce malodor perception. The two methods for assigning the indices to a test sample on the FFI and the BI reference scales are given below.
(§2) The first step in the method for assigning an FFI to the test samples on the FFI reference scale is to create the FFI reference swatches. […] Fabric swatches for this test are white knit polycotton (4 inch×4 inch) swatches from EMC ordered as PC 50/50. The supplier is instructed to strip the swatches first, stripping involves washing twice with a fragrance-free detergent and rinsing three times.
Pipette 13 μL of each of the three solutions into the middle of a clean swatch resulting in about a 1 cm diameter of the solution in the middle of the swatch. This will create a sensory scale of three swatches with three different odor levels based on the concentration of the solution pipetted onto the swatch. After drying for 30 minutes in a vented hood, the swatches are wrapped in aluminum foil to prevent odor contamination to the treated swatch. A clean untreated swatch is also included as the lowest anchor point of reference for odor strength on the FFI scale. The FFI reference scale swatches should be used within 0.5 to 12 hours and discarded after 12 hours. The swatches are used as scale anchor points when graders evaluate a test sample(s) and are assigned a Fragrance Fidelity Index (FFI) as show in Table 7.
The perfumer/expert panel is asked to rank order swatches according to a scale between 0 and 3.
The reference swatches represent the 0, 1, 2, and 3 FFIs on the FFI reference scale, Table 9. The expert grader should familiarize them self with the strength of the odor on the FFI reference swatches by sniffing each one starting at 0 (the lowest odor strength) and ending at 3 (the highest odor strength). This should be done prior to evaluating the test sample material treated swatch.
A clean swatch is treated with 13 μL of a known concentration of a test sample material resulting in an about 1 cm of the solution on the clean swatch. Just like the reference swatches, the test sample material swatch is dried in a vented hood for 30 minutes and then wrapped in aluminum foil to prevent contamination. The test material swatches and the FFI reference swatches should be made within 2 hours of each other. The test material swatch must be used within 0.5 to 12 hours and discarded after 12 hours.
At least two perfumers/expert graders are used to assign an FFI grade to a test sample. The perfumer/expert grader smells the test sample swatch by holding that swatch 1 inch from their nose with their nose centered over the area where the test sample was pipetted on to the fabric and then assigns the test sample an FFI grade using the FFI reference scale anchor swatches as references. In cases where the test sample material is graded greater than 3, the test material is not a blocker material or the concentration of the material needs to be lowered and reevaluated to determine if a lower level has a malodor blocker functionality.

[2] = Blocker Index (BI) assigned by perfumers/expert graders on isovaleric acid swatches; parameters: species or system human; key: BI odor strength 0 (lowest, clean swatch) to 3 (highest)
Excerpt: as §1
as §2, with “assigning a BI” for “assigning an FFI”, “to a” for “to the”, “test sample material” for “test samples”, “the BI” for “the FFI”
The BI scale contains one clean swatch with no malodor applied. […] These solutions are pipetted to the middle of the swatches. […] After drying for 30 minutes in a vented hood, the swatches are wrapped in aluminum foil to prevent odor contamination to the treated swatch. A clean untreated swatch is also included as the lowest anchor point of reference for malodor strength on the BI scale. The BI reference scale swatches should be used within 0.5 to 12 hours and discarded after 12 hours. The swatches are used as scale anchor points when graders evaluate a test sample(s) and are assigned a Blocker Index (BI) as show in Table 12.
The perfumer/expert grader is asked to rank order swatches according to a scale between 0 and 3.
The reference swatches represent the 0, 1, 2, and 3 BIs on the BI reference scale, Table 12. The expert grader should familiarizes him/herself with the strength of the odor on the BI reference swatches by sniffing each one starting at 0 (the lowest odor strength) and ending at 3 (the highest odor strength). This should be done prior to evaluating the swatch treated with the test material.
To evaluate the BI, the test material is applied to a malodorous swatch to determine how well the test material blocks the malodor. […] After drying the malodorous swatch a known concentration of test material solution, between 1 ppm and 100 ppm is pipetted onto the malodorous swatch. […] It is sometimes necessary to evaluate several levels of the test material between about 1 and about 100 ppm to determine the BI.
At least two perfumers/expert graders are used to assign the BI to the test sample. […] The test sample swatch is assigned a BI at or between numbers on the BI in table.

[3] = Liquid dish neat product liquid-air partition coefficient; type: physicochemical
[4] = Probability of Ingredient Color Instability; type: physicochemical
[5] = Conc 10 ppm test material on swatch
[6] = Conc 50 ppm test material on swatch
[7] = Conc 10 ppm test material on isovaleric acid swatch
[8] = Conc 50 ppm test material on isovaleric acid swatch
[9] = class code letter within Comment Code
[10] = codes K/L of the Comment Code, Table 1

Row | Structure (SMILES) | FFI [1, 5] | FFI [1, 6] | BI [2, 7] | BI [2, 8] | other results
1 | O=C1CCC2CCCCC2O1 (centres unmarked) [3,4,4a,5,6,7,8,8a-octahydrochromen-2-one] | 0 | 0 | 2.0 | 2.0 | –
2 | CC(CCO)CCc1ccccc1 (centres unmarked) [Material 962] | 0 | 0.5 | 2.3 | 1.7 | –
3 | CCOC(=O)OC1C(C)CCC(C)C1C (centres unmarked) [Material 1005] | – | 0.5 | – | 2.6 | –
4 | CCCCCCCCCCCC(=O)OCC [Material 391] | – | 0.3 | – | 2.2 | Log of liquid dish neat product liquid-air partition coefficient (Comment Code K/L) [3, 9]: K (Log of liquid dish neat product liquid-air partition coefficient greater than or equal to −7)
5 | CC(C)(C)C1CCCCC1 [4-tert-butyl cyclohexane] | 0 | 0.3 | 2.0 | 2.0 | –
6 | CCCCCCCCCCCCO [Material 174] | – | 0.5 | – | 2.3 | –
7 | C=CC(C)=CCC=C(C)C [Material 524] | – | 0 | – | 2.8 | –
8 | C=C1CCC2OC2(C)CCC2C1CC2(C)C (centres unmarked) [Material 1148] | – | 0.5 | – | 2.3 | Comment Code: Log of liquid dish neat product liquid-air partition coefficient ([3]; code letters K, L): K (Log of liquid dish neat product liquid-air partition coefficient greater than or equal to −7); Comment Code: Log of liquid dish neat product liquid-air partition coefficient [3, 10]: K (Log of liquid dish neat product liquid-air partition coefficient greater than or equal to −7)
9 | CC1(C)C2CCC3(C2)C1C(=O)CCC3(C)C (centres unmarked) [Material 1149] | 0 | 0.8 | 1.5 | 2.3 | Comment Code: Log of liquid dish neat product liquid-air partition coefficient ([3]; code letters K, L): K (Log of liquid dish neat product liquid-air partition coefficient greater than or equal to −7); Comment Code: Log of liquid dish neat product liquid-air partition coefficient [3, 10]: K (Log of liquid dish neat product liquid-air partition coefficient greater than or equal to −7)
10 | COC(=O)OC1CC/C=C\CCC1 (centres unmarked) [Material 1139] | 0 | 1.0 | 2.0 | 2.7 | –
11 | CCC(O)COC1CCCCC1C(C)(C)C (centres unmarked) [Material 677] | 0 | 1.8 | 2.3 | 2.0 | Log of liquid dish neat product liquid-air partition coefficient (Comment Code K/L) [3]: K (Log of liquid dish neat product liquid-air partition coefficient greater than or equal to −7)
12 | CCCCCCCCCCCO [Undecanol] | – | 0.8 | – | 2.3 | –
13 | CCCCCCCCCCCCCCCC(=O)OC [Material 109] | – | – | 2.0 | – | Log of liquid dish neat product liquid-air partition coefficient (Comment Code K/L) [3, 9]: K (Log of liquid dish neat product liquid-air partition coefficient greater than or equal to −7)
14 | CC(C)CC(=O)O [isovaleric acid, reference compound] | – | – | – | – | BI grade of reference swatch, Ave ([2]; 2 μL 0.08%, all graders (Table 10)): 1.0; BI grade of reference swatch, individual Expert Grader ([2]; stripped swatch with 2 μL 0.08%): 0.5 and 1.0; BI grade of reference swatch, individual Expert Grader ([2]; stripped swatch with 5 μL 0.08%): 2.5; BI grade of reference swatch, individual Expert Grader ([2]; stripped swatch with 20 μL 0.08%): 2.5
15 | CC1(C)CCc2ccc(CCC=O)cc21 [Material 261] | 0 | 1.3 | 1.8 | 1.3 | Log of liquid dish neat product liquid-air partition coefficient (Comment Code K/L) [3, 9]: K (Log of liquid dish neat product liquid-air partition coefficient greater than or equal to −7); Comment Code: Log of liquid dish neat product liquid-air partition coefficient ([3]; code letters K, L): K (Log of liquid dish neat product liquid-air partition coefficient greater than or equal to −7)
16 | CC(=O)OC1CC2CC1C1CC=CC21 (centres unmarked) [Material 281] | 0 | 0.5 | 2.0 | 2.0 | Log of liquid dish neat product liquid-air partition coefficient (Comment Code K/L) [3, 9]: K (Log of liquid dish neat product liquid-air partition coefficient greater than or equal to −7); Comment Code: Log of liquid dish neat product liquid-air partition coefficient ([3]; code letters K, L): K (Log of liquid dish neat product liquid-air partition coefficient greater than or equal to −7)
17 | CC(=O)OCCCCCCC(C)C [Material 204] | 0 | 0 | 2.0 | 2.7 | –
18 | CC(C)=CCCC(C)CCCC(C)C=O (centres unmarked) [Material 757] | – | – | – | – | Probability of Ingredient Color Instability (Comment Code E/F) [4]: F (Probability of Ingredient Color Instability<71%); Log of liquid dish neat product liquid-air partition coefficient (Comment Code K/L) [3]: K (Log of liquid dish neat product liquid-air partition coefficient greater than or equal to −7)
19 | CCCCCC1C(=O)CCC1CC(=O)OC (centres unmarked) [Material 1083] | – | – | – | – | Probability of Ingredient Color Instability (Comment Code E/F) [4]: F (Probability of Ingredient Color Instability<71%); Log of liquid dish neat product liquid-air partition coefficient (Comment Code K/L) [3]: K (Log of liquid dish neat product liquid-air partition coefficient greater than or equal to −7)
